Test results from patent US20210220379A1, “PERITONEAL SODIUM-GLUCOSE TRANSPORTER (SGLT) INHIBITORS FOR IMPROVEMENT OF PERITONEAL DIALYSIS” (MOR RESEARCH APPLICATIONS LTD., priority 2017, published 2021).

Experiments:
[1] = test system: kidney glucose reabsorption; test: Glycosuria by urine stick in healthy CD-1 mice after an SGLT inhibitor; type: in vivo; details: phlorizin 20 mg/kg single SC injection
Description: (§1) Dapagliflozin (0.1 mg/kg) was given to the mice by oral gavage. Control mice were not given any of the SGLT blockers. Tail blood glucose was tested by glucose test meter immediately before (time 0) and during 2 hours after injection. Glucose levels in the urine were tested by standard urine sticks (Multistix® 10 SG, Siemens Healthcare Diagnostics, Tarrytown, N.Y.).

[2] = test system: peritoneal glucose transport; test: Blood glucose in healthy CD-1 mice after intraperitoneal glucose-containing PD fluid; type: in vivo; details: inhibitor given 15 min before intraperitoneal PD fluid, results not shown
Description: as §1

[3] = test system: peritoneal glucose transport; test: Renal failure mice: SC phlorizin followed by intraperitoneal PDF; type: in vivo; details: renal failure CD-1 mice, phlorizin 20 mg/kg SC
Description: (§2) Renal failure in mice and rats was induced by bilateral ureteral ligation, based on the procedure described, for example, in Kim et al. (2015) (Am J Physiol Renal Physio., 308(2):F131-139) and references cited therein. Briefly, mice were anesthetized with an intraperitoneal injection of a cocktail containing ketamine (200 mg/kg body weight) and xylazine (16 mg/kg body weight). After exposure of both the left and right kidneys through flank incision, right and left ureters were ligated completely near the kidney pelvis using a 5-0 silk tie.
A standard commercial PD fluid (Dianeal® 1.5% dextrose), diluted 1:4 in saline (comprising 0.375% glucose) was used. Blood glucose levels were measured by glucometer at indicated time points. Area under the curve (AUC) was calculated for all mice and used to compare the two groups. Concentrations of glucose in the peritoneum fluid measured 30 min after administration of PDF are depicted in FIG. 3C.

[4] = test system: peritoneal glucose transport; test: Renal failure mice: SC phlorizin followed by sodium-free PDF; type: in vivo; details: renal failure CD-1 mice; phlorizin 20 mg/kg SC; sodium free PDF 2 ml, 0.375% glucose
Description: as §2
Dependency of glucose transport on SGLT inhibition during peritoneal dialysis with PDF not containing sodium was assessed.

[5] = test system: peritoneal glucose transport; test: Uremic mice: phlorizin-containing peritoneal dialysis fluid (PPDF) intraperitoneally; type: in vivo; details: uremic CD-1 mice; 2 ml Dianeal 1.5% dextrose with 0.6 μM phlorizin (PPDF) i.p.; compared with separate applications of phlorizin and PDF; P<0.01 vs phlorizin-free PDF
Description: as §2
Blood glucose levels were measured by glucometer at indicated time points, and area under the curve (AUC) was calculated for all mice and used to compare the two groups (FIG. 5C; P<0.01).

[6] = test system: glucose absorption from peritoneal fluid; test: Uremic rat peritoneal dialysis model: PDF with or without phlorizin; type: in vivo, Sprague Dawley (SD) rats; details: uremic SD rats, 120 min dwell
Description: as §2
Animal experiments were approved by local Animal Care Committee. Male Sprague Dawley (SD) rats 200-250 gr, we purchased from Envigo RMS (Jerusalem, Israel), allowed to acclimatize for 1 week before the beginning of the experiment. Animals were anesthetized by intramuscular administration of a mixture of ketamine (200 mg/kg body wt) and xylazine (16 mg/kg body wt). Renal failure was induced by bilateral ureteral ligation as described in Materials and Methods. […] After anesthesia temporary catheters were introduced into the peritoneal cavity.
To PDF of both group 100 μl of fluorescein isothiocyanate-dextran was added, average molecular weight 2,000,000 (FITC Dextran −2000, 100 μg/ml, Sigma-Aldrich®, Israel). Dialysate and tail blood samples were obtained during 120 min dwell, every 15 min. Blood glucose level was measured by standard glucometer, dialysate glucose was measured in the chemistry laboratory of the Soroka Medical Center. Dilution of FITC-dextran was detected by florescence of dialysis fluid samples measured with a 96-well fluorimeter (SpectraMax® Paradigm® plate reader, Molecular Devices) at an emission wavelength of 535 nm and an excitation wavelength of 485 nm. Concentrations of unknown samples were calculated from a standard curve by extrapolation in a linear regression model.

O=C(CCc1ccc(O)cc1)c1c(O)cc(O)cc1O[C@@H]1O[C@H](CO)[C@@H](O)[C@H](O)[C@H]1O [phlorizin, phloretin-2′-β-D-glucopyranoside]
Duration of glycosuria [1]: more than 2 hours
Glucose levels in urine (glycosuria score, urine stick) ([1]; dapagliflozin 0.1 mg/kg oral gavage): significant glycosuria
Blood glucose levels vs control group [2]: significantly lower
Blood glucose levels and AUC vs saline control ([3]; 2 ml Dianeal 1.5% dextrose diluted 1:4 (0.375% glucose) i.p., P<0.05): mitigated hyperglycemia
Glucose levels in peritoneum fluid vs control ([3]; 30 minutes from instillation of PDF): significantly elevated
Blood glucose levels vs control group [4]: no differences
Reduction of blood glucose levels (AUC) [5]: significantly more effective
Blood glucose levels vs control group ([6]; 20 ml PDF (1.5% Dianeal diluted 1:4) with phlorizin 100 μg/ml, P<0.01): Significantly lower
FITC-dextran concentration in PDF (dilution) vs control ([6]; PDF with phlorizin 100 μg/ml, P<0.05): significant diluted
PDF (dialysate) glucose level vs control group ([6]; PDF with phlorizin 100 μg/ml, p<0.001): significant declined
